From patent publication US4870097A, “Pharmaceutical use of derivatives of tryptophan” (priority 1984, dated 1989)

Experiments:
[1] = test system: analgesic activity of morphine; assay: Tail Flick Test: increase in the analgesic effect of morphine; type: in vivo, rats; conditions: for percentage variation in the latency of the pain sensation, 10' / percentage variation in the latency of the pain sensation, 20' / percentage variation in the latency of the pain sensation, 30' / percentage variation in the latency of the pain sensation, 45' / percentage variation in the latency of the pain sensation, 60' / percentage variation in the latency of the pain sensation, 90' / M(10'-90') average percentage variation: compound 10 mg/kg i.p. + morphine 2 mg/kg (row Morphine: alone); for percentage variation in the latency of the pain sensation, 10' / percentage variation in the latency of the pain sensation, 20' / percentage variation in the latency of the pain sensation, 30' / percentage variation in the latency of the pain sensation, 45' / percentage variation in the latency of the pain sensation, 60' / percentage variation in the latency of the pain sensation, 90': ± S.E.; for M(10'-90') average percentage variation: mean 10'-90'; for Potency ratio relative to morphine alone: rat, in vivo
Summary of the method: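 Male non-fasted rats, 150-200 g; heat source (75 °C) on tail, latency to tail movement timed, 8 s cut-off. Measured before and 10, 20, 30, 45, 60, 90 min after analgesic dosing; percentage variation per animal, averaged over groups of five.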

[2] = test system: guinea pig gall bladder contracted with CCK-8; assay: Anti-CCK activity on guinea pig gall bladders in vitro; type: biochemical; conditions: CCK-8 10 ng/ml, concentration antagonising 50% of contracting effect
Summary of the method: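 Longitudinal gall bladder strips in Krebs at 32° C, gassed with O2/CO2 95:5, were contracted with CCK-8 at 10 ng/ml and contractions recorded isometrically via force transducer. ED50 in mcg/ml is the compound concentration antagonising 50% of CCK contraction, derived by regression over at least three experiments.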

[3] = test system: colon of rabbits stimulated with CCK-8; assay: Antispastic activity in the colon of rabbits stimulated with CCK-8; type: in vivo, rabbit; parameters: Antispastic activity, experiment 1 / Antispastic activity, experiment 2 / Antispastic activity, experiment 3: unit not given here; conditions: CCK 100 ng/kg; for ED50: Oryctolagus cuniculus, iv, three experiments
Description: The abdomen of an anaesthetised rabbit is cut open to expose the transverse colon. A balloon full of water is inserted at the point established and connected to a pressure transducer by means of a polyethylene cannula filled with H2 O.
The optimum sensitivity in relation to the physiological contractions is fixed and the products are administered through the femoral veins. Contractions are induced by the administration of 100 ng/kg of CCK.

[4] = test system: analgesic activity of DALA; assay: Tail Flick test: increase in the analgesic activity of DALA (i.c.v.); type: in vivo, rats; conditions: b802: 0.001 g/kg
Description: In order to check one of the possible mechanisms for the action of the compounds of the invention, that is, their possible inhibition of the enzymatic degradation of endogenous enkephalins, the following experiment was carried out:
A cannula was implanted in the right lateral ventricle of male rats having a weight of 150-200 g (groups of five animals were used) in order to allow the intracerebroventricular (i.c.v.) administration of drugs according to the method of Noble et al (Life Science 6, (1970) 281-291).
The animals were subsequently treated (i.c.v.) with 3 μg of D-ala-methionine-enkephalinamide (DALA) immediately after an injection (i.c.v.) of the compounds under study at the doses given in Table 4. Analgesia was tested for by the Tail Flick method already mentioned, at the times

[5] = test system: tolerance induced by morphine; assay: Antagonism to the development of tolerance to repeated administration of morphine HCl (tail flick); type: in vivo, rats
Description: Several of the compounds of the invention were examined to determine any capacity to antagonise the development of tolerance induced by morphine. Groups of six male rats having a weight of about 200-250 were used.
At intervals of 24 hours from the first treatment (time 0), each animal (except for the control group treated with a physiological solution) received 3 mg/kg of morphine hydrochloride i.p. together with 3 mg/kg i.p. of the compounds indicated (with the exception of the group treated solely with morphine).
The determination of the threshold for the pain stimulus was effected at 15°, 30', 45' and 60' intervals from the treatment by the "tail flick" test.

[6] = days 0-7, 3 mg/kg + morphine (row Morphine: alone)

Row | SMILES | percentage variation in the latency of the pain sensation, 10' [1] | percentage variation in the latency of the pain sensation, 20' [1] | percentage variation in the latency of the pain sensation, 30' [1] | percentage variation in the latency of the pain sensation, 45' [1] | percentage variation in the latency of the pain sensation, 60' [1] | percentage variation in the latency of the pain sensation, 90' [1] | M(10'-90') average percentage variation [1] | Potency ratio relative to morphine alone [1] | Anti CCK-8 activity, ED50 [2] | Antispastic activity, experiment 1 ([3]; 1 mg/kg iv) | Antispastic activity, experiment 2 ([3]; 1 mg/kg iv) | Antispastic activity, experiment 3 ([3]; 1 mg/kg iv) | Antispastic activity, experiment 1 ([3]; 3 mg/kg iv) | Antispastic activity, experiment 2 ([3]; 3 mg/kg iv) | Antispastic activity, experiment 3 ([3]; 3 mg/kg iv) | Antispastic activity, experiment 1 ([3]; 10 mg/kg iv) | Antispastic activity, experiment 2 ([3]; 10 mg/kg iv) | ED50 [3] | also measured
1 | O=C(N[C@@H](Cc1c[nH]c2ccccc12)C(=O)O)OCc1ccc(Cl)cc1 [Compound 2] | 50.0 ± 14.9% | 25.0 ± 26.0% | 75.6 ± 17.6% | 23.7 ± 19.6% | 41.0 ± 20.3% | 43.6 ± 16.4% | 44.6% | 1.50 | 13.5 µg/mL | -10.9 | -16.8 | -38.8 | -31.4 | -56.6 | -41.5 | -85.9 | -74.4 | 4.67 mg/kg | Antispastic activity, experiment 3 ([3]; 10 mg/kg iv): -90.2
2 | CCCN(CCC)C(=O)C(CCC(=O)O)NC(=O)c1ccccc1 (centres unmarked) [proglumide, reference compound] |  |  |  |  |  |  |  |  |  |  |  |  |  |  |  |  |  |  | potentiating action on the analgesic effect of DALA (in words) [4]: highly significant
3 | CC(C)c1ccc(C(=O)N[C@@H](Cc2c[nH]c3ccccc23)C(=O)O)cc1 [Compound 20] | 20.0 ± 12.8% | 33.1 ± 22.0% | 37.6 ± 18.9% | 37.5 ± 18.8% | 54.4 ± 19.3% | 33.2 ± 18.1% | 36.0% | 1.21 | 17.9 µg/mL | -30.8 | -44.2 | -34.7 | -36.0 | -60.3 | -59.0 | -82.5 | -100.0 | 3.41 mg/kg | Antispastic activity, experiment 3 ([3]; 0.3 mg/kg iv): -12.8
4 | O=C(N[C@@H](Cc1c[nH]c2ccccc12)C(=O)O)OCc1ccc(F)cc1 [Compound 1, N-p-fluorocarbobenzoxy-L-tryptophan] | 37.6 ± 12.9% | 89.2 ± 7.3% | 96.4 ± 3.5% | 82.6 ± 12.5% | 87.2 ± 7.8% | 40.6 ± 17.7% | 72.3% | 2.43 | 59.9 µg/mL |  |  |  |  |  |  |  |  |  | percentage variation in the latency time, day 0 ([5]; day 0, 3 mg/kg i.p. + morphine HCl 3 mg/kg i.p. (row Morphine: alone)): 44.25%; percentage variation in the latency time, day 1 ([5]; day 1, 3 mg/kg i.p. + morphine HCl 3 mg/kg i.p. (row Morphine: alone)): 69.33%; percentage variation in the latency time, day 2 ([5]; day 2, 3 mg/kg i.p. + morphine HCl 3 mg/kg i.p. (row Morphine: alone)): 69.21%; percentage variation in the latency time, day 3 ([5]; day 3, 3 mg/kg i.p. + morphine HCl 3 mg/kg i.p. (row Morphine: alone)): 54.03%; percentage variation in the latency time, day 4 ([5]; day 4, 3 mg/kg i.p. + morphine HCl 3 mg/kg i.p. (row Morphine: alone)): 21.91%; percentage variation in the latency time, day 5 ([5]; day 5, 3 mg/kg i.p. + morphine HCl 3 mg/kg i.p. (row Morphine: alone)): 33.35%; percentage variation in the latency time, day 6 ([5]; day 6, 3 mg/kg i.p. + morphine HCl 3 mg/kg i.p. (row Morphine: alone)): 36.44%; percentage variation in the latency time, day 7 ([5]; day 7, 3 mg/kg i.p. + morphine HCl 3 mg/kg i.p. (row Morphine: alone)): 16.1%; Area subtended (1) [5, 6]: 342.6 Effect-Day; regression line % Effect versus Day [5, 6]: % Effect = - 5.97 Day + 63.96; Area 1 / Area Morphine ([5]; days 0-7, 3 mg/kg + morphine, ratio to morphine alone): 2.44
